In ChEMBL document CHEMBL5241125, “Overcoming intrinsic resistance in gram-negative bacteria using small molecule adjuvants” (Bioorg Med Chem Lett, 2023):
One block for each molecule: values may come before it. Where a SMILES comes first, the peptide text is derived from it. Bridges are numbered along the chain shown (N, C = ends). [ ]: non-standard residue; d: D form. Dab = NCC[C@H](N)C(=O)O

Columns and labels:
Acinetobacter baumannii [1] = assay: Antibacterial adjuvant activity against Acinetobacter baumannii AB5075 assessed as decrease in clarithromycin MIC at 30 uM incubated for 16 hrs in presence of clarithromycin by broth microdilution method; assay type: functional
Acinetobacter baumannii [2] = assay: Antibacterial adjuvant activity against Acinetobacter baumannii AB5075 assessed as decrease in clarithromycin MIC at 10 uM incubated for 16 hrs in presence of clarithromycin by broth microdilution method; assay type: functional
Acinetobacter baumannii [3] = assay: Antibacterial adjuvant activity against Acinetobacter baumannii AB5075 assessed as decrease in vancomycin MIC at 30 uM incubated for 16 hrs in presence of vancomycin by broth microdilution method; assay type: functional
Escherichia coli [4] = assay: Antibacterial activity against Escherichia coli IH3080 assessed as reduction in bacterial growth by measuring fold change incubated for 18 hrs by spectrophotometry; assay type: functional
Salmonella typhimurium [5] = assay: Antibacterial activity against Salmonella typhimurium SH5014 assessed as reduction in bacterial growth by measuring fold change incubated for 18 hrs by spectrophotometry; assay type: functional, Salmonella enterica subsp. enterica serovar Typhimurium
Escherichia coli [6] = assay: Antibacterial activity against Escherichia coli IH3080 assessed as reduction in bacterial growth by measuring fold change at 3 ug/ml incubated for 18 hrs by spectrophotometry; assay type: functional; conditions: dose 3 µg/ml
Salmonella typhimurium [7] = assay: Antibacterial activity against Salmonella typhimurium SH5014 assessed as reduction in bacterial growth by measuring fold change at 3 ug/ml incubated for 18 hrs by spectrophotometry; assay type: functional, Salmonella enterica subsp. enterica serovar Typhimurium; conditions: dose 3 µg/ml
Pseudomonas aeruginosa [8] = assay: Antibacterial adjuvant activity against Pseudomonas aeruginosa PAO1 assessed as decrease in azithromycin MIC at 60 uM incubated for 16 hrs in presence of azithromycin by broth microdilution method; assay type: functional
Pseudomonas aeruginosa [9] = assay: Antibacterial adjuvant activity against Pseudomonas aeruginosa PAO1 assessed as decrease in azithromycin MIC at 40 uM incubated for 16 hrs in presence of azithromycin by broth microdilution method; assay type: functional
Acinetobacter baumannii [10] = assay: Synergistic antibacterial activity against colistin-sensitive Acinetobacter baumannii ATCC 17978 infected in C57BL/6 mouse assessed as increase in survival rate at 5 mg/kg,po administered in presence of pentamidine for 7 days; assay type: functional; conditions: ATCC 17978, 168 h, time 7 day
Acinetobacter baumannii [11] = assay: Synergistic antibacterial activity against colistin-resistant Acinetobacter baumannii ATCC 17978 infected in C57BL/6 mouse assessed as increase in survival rate at 50 mg/kg,po administered in presence of pentamidine for 7 days; assay type: functional; conditions: ATCC 17978, 168 h, time 7 day
Acinetobacter baumannii [12] = assay: Synergistic antibacterial activity against colistin-sensitive Acinetobacter baumannii ATCC 17978 infected in C57BL/6 mouse assessed as increase in survival rate at 10 mg/kg,po administered in presence of novobiocin for 7 days; assay type: functional; conditions: ATCC 17978, 168 h, time 7 day
[13] = Binding affinity to Escherichia coli Lipid A assessed as dissociation constant
Acinetobacter baumannii [14] = assay: Synergistic antibacterial activity against colistin-resistant Acinetobacter baumannii ATCC 17978 infected in C57BL/6 mouse assessed as increase in survival rate at 10 mg/kg,po administered in presence of novobiocin for 7 days; assay type: functional; conditions: ATCC 17978, 168 h, time 7 day
Acinetobacter baumannii [15] = assay: Synergistic antibacterial activity against Acinetobacter baumannii infected in mouse assessed as increase in survival rate at 5 mg/kg,po administered bid in presence of SPR741 for 3 days; assay type: functional; conditions: 72 h, time 3 day
Acinetobacter baumannii [16] = assay: Synergistic antibacterial activity against Acinetobacter baumannii infected in mouse assessed as reduction of bacterial burden in lung at 5 mg/kg,po administered bid in presence of SPR741 for 3 days; assay type: functional; conditions: time 3 day
Acinetobacter baumannii [17] = assay: Antibacterial activity against Acinetobacter baumannii infected in mouse assessed as increase in survival rate at 5 mg/kg,po administered bid for 3 days; assay type: functional; conditions: 72 h, time 3 day
Acinetobacter baumannii [18] = assay: Antibacterial activity against Acinetobacter baumannii infected in mouse assessed as reduction of bacterial burden in lung at 5 mg/kg,po administered bid for 3 days; assay type: functional; conditions: time 3 day
Acinetobacter baumannii [19] = assay: Synergistic antibacterial activity against Acinetobacter baumannii infected in mouse assessed as increase in survival rate at 60 mg/kg,po administered bid in presence of rifampin for 3 days; assay type: functional; conditions: 72 h, time 3 day
Acinetobacter baumannii [20] = assay: Synergistic antibacterial activity against Acinetobacter baumannii infected in mouse assessed as reduction of bacterial burden in lung at 60 mg/kg,po administered bid in presence of rifampin for 3 days; assay type: functional; conditions: time 3 day

MIC (Acinetobacter baumannii [1]): 0.25 µg/mL
MIC (Acinetobacter baumannii [2]): 2 µg/mL
MIC (Acinetobacter baumannii [3]): 1 µg/mL
Compound: Nc1nc(-c2ccc(NC(=O)c3cc(Cl)cc(Cl)c3)cc2)c[nH]1

MIC (Acinetobacter baumannii [1]): 0.25 µg/mL
MIC (Acinetobacter baumannii [2]): 2 µg/mL
MIC (Acinetobacter baumannii [3]): 1 µg/mL
Compound: Nc1ncc(-c2ccc(NC(=O)c3cc(Br)cc(Br)c3)cc2)[nH]1

Compound: CC(C)C[C@@H]1NC(=O)[C@@H](Cc2ccccc2)NC(=O)[C@H](CCN)NC(=O)[C@@H](NC(=O)[C@H](CCN)NC(=O)[C@@H](NC(=O)[C@@H](N)CCN)[C@H](C)O)CCNC(=O)[C@H]([C@@H](C)O)NC(=O)[C@H](CCN)NC(=O)[C@H](CCN)NC1=O
fold change (FC) (Escherichia coli [4]): 300
fold change (FC) (Salmonella typhimurium [5]): 300

Compound: CC(C)C[C@@H]1NC(=O)[C@@H](Cc2ccccc2)NC(=O)[C@H](CCN)NC(=O)[C@@H](NC(=O)[C@H](CCN)NC(=O)[C@@H](N)[C@H](C)O)CCNC(=O)[C@H]([C@@H](C)O)NC(=O)[C@H](CCN)NC(=O)[C@H](CCN)NC1=O
fold change (FC) (Escherichia coli [6]): 10
fold change (FC) (Salmonella typhimurium [7]): 10

MIC (Pseudomonas aeruginosa [8]): 0.25 µg/mL
MIC (Pseudomonas aeruginosa [9]): 1 µg/mL
Compound: NCCCC(c1c[nH]c(N)n1)c1cnc(N)[nH]1

Compound: CC(C)C[C@@H]1NC(=O)[C@@H](CC(C)C)NC(=O)[C@H](CCN)NC(=O)[C@@H](NC(=O)[C@H](CCN)NC(=O)[C@@H](NC(=O)[C@@H](N)CCN)[C@H](C)O)CCNC(=O)[C@H]([C@@H](C)O)NC(=O)[C@H](CCN)NC(=O)[C@H](CCN)NC1=O
fold change (FC) (Escherichia coli [4]): 300
fold change (FC) (Salmonella typhimurium [5]): 300

Compound: CO[C@@H]1[C@@H](OC(N)=O)[C@@H](O)[C@H](Oc2ccc3c(O)c(NC(=O)c4ccc(O)c(CC=C(C)C)c4)c(=O)oc3c2C)OC1(C)C [NOVOBIOCIN]
survival at 5 mg/kg (Acinetobacter baumannii [10]): 100%
survival at 50 mg/kg (Acinetobacter baumannii [11]): 90%

Compound: N=C(N)c1ccc(OCCCCCOc2ccc(C(=N)N)cc2)cc1 [PENTAMIDINE]
survival at 10 mg/kg (Acinetobacter baumannii [12]): 100%
Kd [13]: 120 nM
survival at 10 mg/kg (Acinetobacter baumannii [14]): 90%

Compound: CO[C@H]1/C=C/O[C@@]2(C)Oc3c(C)c(O)c4c(O)c(c(/C=N/N5CCN(C)CC5)c(O)c4c3C2=O)NC(=O)/C(C)=C\C=C\[C@H](C)[C@H](O)[C@@H](C)[C@@H](O)[C@@H](C)[C@H](OC(C)=O)[C@@H]1C [RIFAMPIN]
survival at 5 mg/kg (Acinetobacter baumannii [15]): 90%
Activity (Acinetobacter baumannii [16]): 6 log10CFU/g
survival at 5 mg/kg (Acinetobacter baumannii [17]): 50%
Activity (Acinetobacter baumannii [18]): 2 log10CFU/g

Compound: CC(=O)N[C@H](C(=O)N[C@H](CO)C(=O)N[C@H]1CCNC(=O)[C@H]([C@@H](C)O)NC(=O)[C@H](CCN)NC(=O)[C@H](CCN)NC(=O)[C@H](CC(C)C)NC(=O)[C@@H](Cc2ccccc2)NC(=O)[C@H](CCN)NC1=O)[C@@H](C)O [SPR-741] (Ac-T[dS][Dab][Dab][dF]L[Dab][Dab]T; lactam 3-C)
survival at 60 mg/kg (Acinetobacter baumannii [19]): 90%
Activity (Acinetobacter baumannii [20]): 6 log10CFU/g
